This is an account of results in patent US20240108607A1, “METHOD FOR MANUFACTURING NOVEL NITROGEN-CONTAINING COMPOUND OR SALT THEREOF AND MANUFACTURING INTERMEDIATE OF NOVEL NITROGEN-CONTAINING COMPOUND OR SALT THEREOF” (FUJIFILM Corporation, priority 2015, published 2024).

Read-outs that look alike come from different tables or passages of the source.

Series [1] relates to U87MG cells. The series can be described thus: Radioactivity concentration of labeled compounds in tumor, U87MG subcutaneous transplantation. To be noted: caudal vein, 111In 740 kBq, 64Cu and 90Y 500 kBq. Type of series: in vivo, mice (Balb/c AJcl-nu/nu). The method, then: Test Example 3 Evaluation based on radioactivity concentration of ^111In-labeled compound, ^64Cu-labeled compound, and ^90Y-labeled compound in tumor
After 2 to 3 weeks, at a point in time when the tumor volume became 200 to 500 mm^3, 3 mice were sorted into one group at each point in time. The ^111In-labeled compound (740 k Bq) was administered into the caudal vein, the animals were sacrificed after a certain period of time, and the tumor was extracted. The weight of the tumor was measured, the radioactivity was measured using a gamma counter, and the radioactivity concentration in tumor (% ID/g) was calculated. For the ^64Cu-labeled compound (500 k Bq) and the ^90Y-labeled compound (500 k Bq), the radioactivity concentration in tumor (% ID/g) was calculated by the same method.

Series [2] in a line: Radiochemical purity after standing at room temperature (reversed-phase TLC). Type of series: physicochemical. The method, then:
A indium [^111In] chloride solution (80 MBq, 100 μL) was added to a mixture of the compound A (8.5 μg) and a 0.2 mol/L sodium acetate buffer solution (pH 4.0) (1.5 mL). The solution was heated to 100° C. for 15 minutes and then left to stand for 5 minutes at room temperature, thereby obtaining [^111In]-(compound A). […] The radiochemical purity measured immediately after the compound was prepared and measured after 24 hours at room temperature was equal to or higher than 95%.
A yttrium [^90Y] chloride solution (700 MBq, 240 μL) was added to a mixture of the compound (79 μg), gentisic acid (1.8 mg), a 0.6 mol/L sodium acetate buffer solution (pH 4.0, 120 μL), and 0.4 mol/L aqueous sodium hydroxide solution (24 μL). The solution was heated to 100° C. for 20 minutes and then left to stand for 5 minutes at room temperature, thereby obtaining [90^Y]-(compound A). […] The radiochemical purity measured immediately after the compound was prepared and measured after 24 hours at room temperature was equal to or higher than 95%.
A copper [^64Cu] chloride solution (pH 5, 35 MBq, 55 μL) was added to a mixture of the compound A (5.8 μg) and 0.2 mol/L sodium acetate buffer solution (pH 4.0, 219 μL). The solution was heated to 100° C. for 15 minutes and left to stand for 5 minute at room temperature, thereby obtaining [^64Cu]-(compound A). […] The radiochemical purity measured immediately after the compound was prepared and measured after 22 hours at room temperature was equal to or higher than 90%.
A 0.2 mol/L sodium acetate buffer solution of Copper [^64Cu] chloride (pH 4.0) (40 MBq, 155 μL) was added to a mixture of the compound B (4.2 μg), gentisic acid (1 mg), and a 0.2 mol/L sodium acetate buffer solution (pH 4.0) (5.0 μL). The solution was heated to 100° C. for 15 minutes and left to stand for 5 minutes at room temperature, thereby obtaining [^64Cu]-(compound B). […] The radiochemical purity measured immediately after the compound was prepared and measured after 24 hours at room temperature was equal to or higher than 90%.
A gallium [^67Ga] chloride solution (200 MBq, 63 μL) was added to a mixed solution of the compound A (21 μg), gentisic acid (1.0 mg), a 0.2 mol/L sodium acetate buffer solution (pH 4.0, 730.7 μL), and 4.5 mol/L aqueous sodium hydroxide solution (6.3 μL). The solution was heated to 100° C. for 15 minutes and then left to stand for 5 minutes at room temperature, thereby obtaining [^67Ga]-(compound A).
A lutetium [^177Lu] chloride solution (666 MBq, 333 μL) dissolved in a 0.2 mol/L sodium acetate buffer solution (pH 4.0) was added to a mixed solution of the compound A (70.0 μg), gentisic acid (1.8 mg), and a 0.2 mol/L sodium acetate buffer solution (pH 4.0, 83.3 μL). The solution was heated to 100° C. for 15 minutes and then left to stand for 5 minutes at room temperature, thereby obtaining [^177Lu]-(compound A).
A gallium [^67Ga] chloride solution (40 MBq, 11.7 μL) was added to a mixed solution of the compound B (4.1 μg), gentisic acid (1.0 mg), a 0.2 mol/L sodium acetate buffer solution (pH 4.5, 147.13 μL), and 4.5 mol/L aqueous sodium hydroxide solution (1.17 μL). The solution was heated to 100° C. for 15 minutes and then left to stand for 5 minutes at room temperature, thereby obtaining [^67Ga]-(compound B).

Series [3] has as its system U87MG cells. To be noted: 1 time; for Number of animals showing regression: 8 animals; for Inhibition rate: 16 days after administration; for Tumor volume 16 days after administration / Tumor volume At the beginning of administration: Mean ± SD. Here is the method: Test Example 7 Therapeutic Test on U87MG Subcutaneous Transplantation Model Using [^90Y]-(Compound A)
1×10^7 U87MG cells were transplanted into the subcutaneous space of the right flank of Balb/c Slc-nu/nu (males, 6-week-old, Japan SLC. Inc). After 2 weeks, the mice with a tumor having a volume of 100 to 500 mm^3 were grouped. A phosphate buffered saline (PBS) or [^90Y]-(compound A) was administered into the caudal vein, and the tumor volume was measured. At a point in time when the tumor volume of the mice of the PBS group exceeded 2,000 mm^3 which is a humane endpoint, the antitumor activity was evaluated.

Series [4] relates to T98G cell (human glioblastoma). The series can be described thus: Therapeutic test on T98G subcutaneous transplantation model. Type of series: in vivo, mice (Balb/c Slc-nu/nu). To be noted: 1 time; for Number of animals showing regression: 6 animals; for Inhibition rate: 13 days after administration; for Tumor volume 13 days after administration / Tumor volume At the beginning of administration: Mean ± SD. Here is the method: Test Example 8 Therapeutic Test on T98G Subcutaneous Transplantation Model Using [^90Y]-(Compound A)
After 77 days, at a point in time when the tumor volume reached 300 to 1,200 mm^3, the mice were grouped. […] The evaluation values were calculated by the same method as in Test Example 7, and the antitumor activity was evaluated.

The nature of series [5]: Absorbed dose in a human being simulated with OLINDA/EXM 1.0 from monkey organ distribution. Here is the method: (§1) Blood was collected from a crab-eating macaque over time, and by using [^111In]-(compound A), from the radioactivity concentration in the blood, kinetic parameters of the compound in blood were calculated by OLINDA/EXM 1.0. Furthermore, by using [^111In]-(compound A), from the organ distribution obtained by imaging, the absorbed dose of each organ obtained in a case where the compound is administered to a human being was calculated using OLINDA/EXM 1.0. [^111In]-(compound A) (98 MBq/9.3 μg) was administered to a crab-eating macaque (Hamri Co., Ltd., males, 3-year-old, 3.4 kg) under anesthesia. After the administration, blood was collected over time, and imaging was performed using a gamma camera. The blood was collected 10, 30, and 60 minutes after the administration and 2, 4, 5, 6, 24, 48, 72, and 144 hours after the administration. Regarding the imaging, after 1, 2, 4, 6, 24, 48, 72, and 144 hours, planar imaging was performed using a gamma camera (Symbia, Siemens Healthcare GmbH). Regarding the anesthesia, the animal was anesthetized with ketamine at 20 mg/kg before the administration of [^111In]-(compound A) and kept anesthetized until the end of imaging, which was continued for 6 hours after the administration, by inhalation anesthesia (isofluran 2 to 3%, 5 to 8 L/min). After 24 hours, ketamine (20 mg/kg) and xylazine (2 mg/kg) were administered to perform blood collection and imaging.
(§2) Furthermore, by using exposure dose analysis software OLINDA/EXM 1.0, the absorbed dose in a human being was simulated using each of the labeled compounds, and the results are shown below.

Series [6] is described as follows: Monkey blood kinetics and planar imaging. In kind it is in vivo, crab-eating macaque. Here is the method:
Test Example 9 Imaging of Monkey by Using [^111In]-(Compound A)
as §1
The kinetic parameters in blood are also shown below.
as §2

Regarding `Cc1cc(OCCCC(=O)NCCNC(=O)[C@H](CS(=O)(=O)O)NC(=O)CC[C@H](C(=O)O)N2CCN(CC(=O)[O-])CCN(CC(=O)[O-])CC2)cc(C)c1S(=O)(=O)N[C@@H](CNC(=O)CCCCc1ccc2c(n1)NCCC2)C(=O)O.[64Cu+2]` [[^64Cu]-(compound B)], in series [1], the “Radioactivity concentration in tumor After 4 hours” value came to 11.19 % ID/g and the “Radioactivity concentration in tumor After 24 hours” value amounted to 8.53 % ID/g. Also, the “radiochemical purity immediately after preparation and after 24 hours at room temperature” value in series [2] is at least 90%.

Turning to `Cc1cc(OCCCC(=O)NCCNC(=O)[C@H](CS(=O)(=O)O)NC(=O)CN2CCN(CC(=O)[O-])CCN(CC(=O)[O-])CCN(CC(=O)[O-])CC2)cc(C)c1S(=O)(=O)N[C@@H](CNC(=O)CCCCc1ccc2c(n1)NCCC2)C(=O)O.[67Ga+3]` [[^67Ga]-(compound A)], the “radiochemical purity immediately after preparation and after 3.5 hours at room temperature” value in series [2] (3.5 hours) is given as at least 95%.

For `Cc1cc(OCCCC(=O)NCCNC(=O)[C@H](CS(=O)(=O)O)NC(=O)CC[C@H](C(=O)[O-])N2CCN(CC(=O)[O-])CCN(CC(=O)[O-])CC2)cc(C)c1S(=O)(=O)N[C@@H](CNC(=O)CCCCc1ccc2c(n1)NCCC2)C(=O)O.[67Ga+3]` [[^67Ga]-(compound B)], the “radiochemical purity immediately after preparation and after 5.5 hours at room temperature” value in series [2] (5.5 hours) is reported as at least 95%.

As to `Cc1cc(OCCCC(=O)NCCNC(=O)C(CS(=O)(=O)O)NC(=O)CN2CCN(CC(=O)[O-])CCN(CC(=O)[O-])CCN(CC(=O)[O-])CC2)cc(C)c1S(=O)(=O)NC(CNC(=O)CCCCc1ccc2c(n1)NCCC2)C(=O)O.[90Y+3]` (stereo not shown) [[^90Y]-(compound A)], in series [1], the “Radioactivity concentration in tumor After 4 hours” value was 12.52 % ID/g and the “Radioactivity concentration in tumor After 24 hours” value is on record as 15.29 % ID/g. Further, in series [3] (14.8 MBq), the “Number of animals showing regression” value came to 2, the Inhibition rate came out at 95%, the “Tumor volume 16 days after administration” value was found to be 429 ± 188 mm^3 and the “Tumor volume At the beginning of administration” value (“Tumor volume At the beginning” for short) is 351 ± 72 mm^3. For the same compound, in series [3] (22.2 MBq), the “Number of animals showing regression” value is listed as 2, the Inhibition rate is given as 97%, the “Tumor volume 16 days after administration” value amounted to 386 ± 142 mm^3 and the “Tumor volume At the beginning” value was 343 ± 88 mm^3. In addition, in series [4] (22.2 MBq), the “Number of animals showing regression” value turned out to be 1, the Inhibition rate is reported as 82%, the “Tumor volume 13 days after administration” value stood at 882 ± 399 mm^3 and the “Tumor volume At the beginning” value is 755 ± 293 mm^3. In addition, in series [4] (29.6 MBq), the “Number of animals showing regression” value amounted to 3, the Inhibition rate worked out at 97%, the “Tumor volume 13 days after administration” value is reported as 755 ± 313 mm^3 and the “Tumor volume At the beginning” value is listed as 736 ± 264 mm^3. In series [5], the “Absorbed dose Brain” value is listed as 1.96 mGy/MBq, the “Absorbed dose Kidney” value is recorded as 14.7 mGy/MBq, the “Absorbed dose Liver” value is reported as 1.12 mGy/MBq and the “Absorbed dose Lung” value is on record as 1.35 mGy/MBq. Moreover, in series [5], the “Absorbed dose Red marrow” value is given as 0.06 mGy/MBq, the “Absorbed dose Small intestine” value is given as 0.87 mGy/MBq and the “Absorbed dose Whole body” value is on record as 0.27 mGy/MBq. The “radiochemical purity immediately after preparation and after 24 hours at room temperature” value in series [2] is reported as at least 95%.

Take `Cc1cc(OCCCC(=O)NCCNC(=O)C(CS(=O)(=O)O)NC(=O)CN2CCN(CC(=O)[O-])CCN(CC(=O)[O-])CCN(CC(=O)[O-])CC2)cc(C)c1S(=O)(=O)NC(CNC(=O)CCCCc1ccc2c(n1)NCCC2)C(=O)O.[111In+3]` (stereo not shown) [[^111In]-(compound A)]: in series [1], the “Radioactivity concentration in tumor After 4 hours” value is reported as 11.10 % ID/g and the “Radioactivity concentration in tumor After 24 hours” value is reported as 9.62 % ID/g. In series [6] (blood, 98 MBq/9.3 μg), this compound yielded an AUC of 0.22 % ID · h/mL, a CL of 2.17 mL/min/kg, a Cmax of 0.018 % ID/mL and a T½α of 0.46 h. Besides, in series [6] (blood, 98 MBq/9.3 μg), the T½β was found to be 19.3 h and the Vss turned out to be 3.52 L/kg. Also, the “integration into the bladder and the gall bladder (planar imaging)” value in series [6] (up to 6 hours after the administration) is listed as “increased over time”. For the same compound, in series [5], the “Absorbed dose Brain” value is recorded as 0.25 mGy/MBq, the “Absorbed dose Kidney” value is 1.19 mGy/MBq, the “Absorbed dose Liver” value was 0.19 mGy/MBq and the “Absorbed dose Lung” value is reported as 0.12 mGy/MBq. Also, in series [5], the “Absorbed dose Red marrow” value is given as 0.05 mGy/MBq, the “Absorbed dose Small intestine” value is 0.05 mGy/MBq and the “Absorbed dose Whole body” value is given as 0.05 mGy/MBq. In series [2], the “radiochemical purity immediately after preparation and after 24 hours at room temperature” value is listed as at least 95%.

In the case of `Cc1cc(OCCCC(=O)NCCNC(=O)[C@H](CS(=O)(=O)O)NC(=O)CN2CCN(CC(=O)[O-])CCN(CC(=O)[O-])CCN(CC(=O)[O-])CC2)cc(C)c1S(=O)(=O)N[C@@H](CNC(=O)CCCCc1ccc2c(n1)NCCC2)C(=O)O.[177Lu+3]` [[^177Lu]-(compound A)], the “radiochemical purity immediately after preparation and after 3 hours at room temperature” value in series [2] (3 hours) is listed as at least 95%.
